Experimental data taken from PubChem BioAssay AID1963854 (Molecular Pharmacology Branch, DTP, NCI, 2024).

Test system: 186277-243-T-J2-PDC complex spheroid viability
Assay: Anticancer human tumor 186277-243-T-J2-PDC patient-derived colon adenocarcinoma cell line growth inhibition [POLQ]
Details: for IC50: curve of first compound; for viability, T/C: stronger effect = lower value
How it was run: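 Complex spheroid viability model combining PDC tumour cells with endothelial (HUVEC) and MSC stromal cells. Novobiocin, ART-558 or RP6685 were tested singly and in combination with standard and investigational anticancer drugs. Each was titrated in half-log steps from near clinical Cmax, or from 10 microM where Cmax was unknown.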

[1] = second compound 0.0316 µM, first compound 0.0316 µM
[2] = second compound 0.0316 µM, first compound 0.1 µM
[3] = second compound 0.0316 µM, first compound 0.316 µM
[4] = second compound 0.0316 µM, first compound 1 µM
[5] = second compound 0.0316 µM, first compound 3.16 µM
[6] = second compound 0.0316 µM, first compound 10 µM
[7] = second compound 0.1 µM, first compound 0.0316 µM
[8] = second compound 0.1 µM, first compound 0.1 µM
[9] = second compound 0.1 µM, first compound 0.316 µM
[10] = second compound 0.1 µM, first compound 1 µM
[11] = second compound 0.1 µM, first compound 3.16 µM
[12] = second compound 0.1 µM, first compound 10 µM
[13] = second compound 0.316 µM, first compound 0.0316 µM
[14] = second compound 0.316 µM, first compound 0.1 µM
[15] = second compound 0.316 µM, first compound 0.316 µM
[16] = second compound 0.316 µM, first compound 1 µM
[17] = second compound 0.316 µM, first compound 3.16 µM
[18] = second compound 0.316 µM, first compound 10 µM
[19] = second compound 1 µM, first compound 0.0316 µM
[20] = second compound 1 µM, first compound 0.1 µM
[21] = second compound 1 µM, first compound 0.316 µM
[22] = second compound 1 µM, first compound 1 µM
[23] = second compound 1 µM, first compound 3.16 µM
[24] = second compound 1 µM, first compound 10 µM
[25] = second compound 3.16 µM, first compound 0.0316 µM
[26] = second compound 3.16 µM, first compound 0.1 µM
[27] = second compound 3.16 µM, first compound 0.316 µM
[28] = second compound 3.16 µM, first compound 1 µM
[29] = second compound 3.16 µM, first compound 3.16 µM
[30] = second compound 3.16 µM, first compound 10 µM
[31] = second compound 10 µM, first compound 0.0316 µM
[32] = second compound 10 µM, first compound 0.1 µM
[33] = second compound 10 µM, first compound 0.316 µM
[34] = second compound 10 µM, first compound 1 µM
[35] = second compound 10 µM, first compound 3.16 µM
[36] = second compound 10 µM, first compound 10 µM
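Also: spheroids exposed to compounds for seven days.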
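For viability, T/C in this document: 100% = DMSO vehicle control viability.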

`O=C(c1cc(Cc2n[nH]c(=O)c3ccccc23)ccc1F)N1CCN(C(=O)C2CC2)CC1` + Cc1cccc(N(C)C(=O)C2C(O)CCN2c2nc(C)cc(C(F)(F)F)c2C#N)c1 gave an IC50 (second compound 0.0316 µM) greater than 10 µM, an IC50 (second compound 0.1 µM) greater than 10 µM and an IC50 (second compound 0.316 µM) greater than 10 µM. It also gave an IC50 (second compound 1 µM) greater than 10 µM, an IC50 (second compound 3.16 µM) greater than 10 µM and an IC50 (second compound 10 µM) greater than 10 µM. It also gave a viability, T/C [1] of 89.3%, a viability, T/C [2] of 99.9% and a viability, T/C [3] of 99.9%. For the same compound, the viability, T/C [4] was 100%, the viability, T/C [5] was 118% and the viability, T/C [6] was 75.5%. The viability, T/C [7] was 94%, the viability, T/C [8] was 92.4% and the viability, T/C [9] was 96.3%. It also gave a viability, T/C [10] of 92.7%, a viability, T/C [11] of 114% and a viability, T/C [12] of 81.8%. The viability, T/C [13] was 94.8%, the viability, T/C [14] was 116% and the viability, T/C [15] was 99.7%. The viability, T/C [16] was 97%, the viability, T/C [17] was 112% and the viability, T/C [18] was 78.1%. The viability, T/C [19] was 101%, the viability, T/C [20] was 96.8% and the viability, T/C [21] was 113%. For the same compound, the viability, T/C [22] was 90.7%, the viability, T/C [23] was 99.5% and the viability, T/C [24] was 76.1%. It also gave a viability, T/C [25] of 96.3%, a viability, T/C [26] of 99% and a viability, T/C [27] of 97.6%. For the same compound, the viability, T/C [28] was 106%, the viability, T/C [29] was 113% and the viability, T/C [30] was 58.7%. The viability, T/C [31] was 115%, the viability, T/C [32] was 103% and the viability, T/C [33] was 100%. The viability, T/C [34] was 108%, the viability, T/C [35] was 113% and the viability, T/C [36] was 65.2%.

For `O=C(Nc1ccc(O)c(NS(=O)(=O)c2ccc(F)cc2)c1)c1ccc(-c2ccccc2)cc1` + Cc1cccc(N(C)C(=O)C2C(O)CCN2c2nc(C)cc(C(F)(F)F)c2C#N)c1, the IC50 (second compound 0.0316 µM) was greater than 10 µM, the IC50 (second compound 0.1 µM) was greater than 10 µM and the IC50 (second compound 0.316 µM) was greater than 10 µM. It also gave an IC50 (second compound 1 µM) greater than 10 µM, an IC50 (second compound 3.16 µM) greater than 10 µM and an IC50 (second compound 10 µM) greater than 10 µM. For the same compound, the viability, T/C [1] was 93.9%, the viability, T/C [2] was 98.5% and the viability, T/C [3] was 108%. For the same compound, the viability, T/C [4] was 86.1%, the viability, T/C [5] was 116% and the viability, T/C [6] was 107%. For the same compound, the viability, T/C [7] was 108%, the viability, T/C [8] was 102% and the viability, T/C [9] was 104%. For the same compound, the viability, T/C [10] was 88.9%, the viability, T/C [11] was 108% and the viability, T/C [12] was 105%. For the same compound, the viability, T/C [13] was 86.6%, the viability, T/C [14] was 106% and the viability, T/C [15] was 110%. It also gave a viability, T/C [16] of 103%, a viability, T/C [17] of 102% and a viability, T/C [18] of 108%. It also gave a viability, T/C [19] of 95%, a viability, T/C [20] of 111% and a viability, T/C [21] of 103%. It also gave a viability, T/C [22] of 104%, a viability, T/C [23] of 107% and a viability, T/C [24] of 109%. The viability, T/C [25] was 102%, the viability, T/C [26] was 94.8% and the viability, T/C [27] was 102%. For the same compound, the viability, T/C [28] was 90.8%, the viability, T/C [29] was 103% and the viability, T/C [30] was 112%. For the same compound, the viability, T/C [31] was 100%, the viability, T/C [32] was 106% and the viability, T/C [33] was 86.7%. It also gave a viability, T/C [34] of 95.2%, a viability, T/C [35] of 107% and a viability, T/C [36] of 115%.

Work on `CC(=O)O[C@H]1C(=O)[C@@]2(C)[C@H]([C@H](OC(=O)c3ccccc3)[C@]3(O)C[C@H](OC(=O)[C@H](O)[C@@H](NC(=O)c4ccccc4)c4ccccc4)C(C)=C1C3(C)C)[C@]1(OC(C)=O)CO[C@@H]1C[C@@H]2O` + COC1C(OC(N)=O)C(O)C(Oc2ccc3c(O)c(NC(=O)c4ccc(O)c(CC=C(C)C)c4)c(=O)oc3c2C)OC1(C)C yielded an IC50 (second compound 0.0316 µM) of less than 0.00949 µM, an IC50 (second compound 0.1 µM) of less than 0.00949 µM and an IC50 (second compound 0.316 µM) of less than 0.00949 µM. It also gave an IC50 (second compound 1 µM) of less than 0.00949 µM, an IC50 (second compound 3.16 µM) of less than 0.00949 µM and an IC50 (second compound 10 µM) of less than 0.00949 µM. For the same compound, the viability, T/C (second compound 0.0316 µM, first compound 0.00949 µM) was 18.8%, the viability, T/C (second compound 0.0316 µM, first compound 0.03 µM) was 6.51% and the viability, T/C (second compound 0.0316 µM, first compound 0.0949 µM) was 3.77%. It also gave a viability, T/C (second compound 0.0316 µM, first compound 0.3 µM) of 2.87%, a viability, T/C (second compound 0.0316 µM, first compound 0.949 µM) of 2.1% and a viability, T/C (second compound 0.0316 µM, first compound 3 µM) of 2.04%. The viability, T/C (second compound 0.1 µM, first compound 0.00949 µM) was 17.1%, the viability, T/C (second compound 0.1 µM, first compound 0.03 µM) was 5.55% and the viability, T/C (second compound 0.1 µM, first compound 0.0949 µM) was 3.16%. For the same compound, the viability, T/C (second compound 0.1 µM, first compound 0.3 µM) was 3.36%, the viability, T/C (second compound 0.1 µM, first compound 0.949 µM) was 2.39% and the viability, T/C (second compound 0.1 µM, first compound 3 µM) was 2.52%. The viability, T/C (second compound 0.316 µM, first compound 0.00949 µM) was 20.7%, the viability, T/C (second compound 0.316 µM, first compound 0.03 µM) was 5.59% and the viability, T/C (second compound 0.316 µM, first compound 0.0949 µM) was 3.78%. For the same compound, the viability, T/C (second compound 0.316 µM, first compound 0.3 µM) was 2.55%, the viability, T/C (second compound 0.316 µM, first compound 0.949 µM) was 2.77% and the viability, T/C (second compound 0.316 µM, first compound 3 µM) was 2.42%. The viability, T/C (second compound 1 µM, first compound 0.00949 µM) was 19%, the viability, T/C (second compound 1 µM, first compound 0.03 µM) was 5.89% and the viability, T/C (second compound 1 µM, first compound 0.0949 µM) was 3.25%. It also gave a viability, T/C (second compound 1 µM, first compound 0.3 µM) of 3.12%, a viability, T/C (second compound 1 µM, first compound 0.949 µM) of 2.59% and a viability, T/C (second compound 1 µM, first compound 3 µM) of 2.05%. It also gave a viability, T/C (second compound 3.16 µM, first compound 0.00949 µM) of 17%, a viability, T/C (second compound 3.16 µM, first compound 0.03 µM) of 6.12% and a viability, T/C (second compound 3.16 µM, first compound 0.0949 µM) of 3.2%. It also gave a viability, T/C (second compound 3.16 µM, first compound 0.3 µM) of 2.83%, a viability, T/C (second compound 3.16 µM, first compound 0.949 µM) of 3.06% and a viability, T/C (second compound 3.16 µM, first compound 3 µM) of 2.28%. The viability, T/C (second compound 10 µM, first compound 0.00949 µM) was 19.6%, the viability, T/C (second compound 10 µM, first compound 0.03 µM) was 5.72% and the viability, T/C (second compound 10 µM, first compound 0.0949 µM) was 3.65%. For the same compound, the viability, T/C (second compound 10 µM, first compound 0.3 µM) was 2.92%, the viability, T/C (second compound 10 µM, first compound 0.949 µM) was 2.88% and the viability, T/C (second compound 10 µM, first compound 3 µM) was 2.55%.
